Results as given in publication PMC9977398, “Next-generation membrane-active glycopeptide antibiotics that also inhibit bacterial cell division” (Chemical Science, 2023).

Key:
[1] = tested on: VRE; assay: MIC against VRE (strains taken together); type: cell-based; conditions: ratio of MICs
Protocol: The increase in the carbon content of substituted moieties from six (1) to seven (2 and 3) to ten (5) to twelve (4), increased activity.
VanQAmC14 (10): Yield 65%; HPLC purity 96%; 1H-NMR (400 MHz, DMSO-d6) δ/ppm:
Test compound was assayed in a micro -dilution broth format as per the CLSI guideline. The bacterial freeze dried stock samples were stored at -80 °C. About 5 μL of these stocks were added to 3 mL of the respective broth and the culture was grown for 6 h at 37°C with prior to the experiments. This 6 h grown culture was diluted to give effective cell concentration of 10 5 CFU/mL which was then used for determining MIC. Compounds were serially diluted 2 -fold, in sterile millipore water and 50 μL of these serial dilutions were added to the wells of 96 well plate followed by the addition of about 150 μL of bacterial solution. The plates were then incubated for 18-24 h at 37 °C. The O.D. value at 600 nm was recorded using TECAN (Infinite series, M200 pro) Plate Reade r. Each concentration had triplicate values and the whole experiment was done at least twice and the MIC value was determined by taking the average of triplicate O. D. values for each concentration and plotting it against concentration. The data was then subjected to sigmoidal fitting. From the curve the MIC value was determined, as the point where the O. D. was similar to that of control having no bacteria.

[2] = tested on: MRSA; assay: Resistance study, serial passaging at sub-MIC; type: cell-based, S. aureus; conditions: after 20 passages at sub-MIC
Protocol: Having observed the multiple mechanisms of VanQAmC10, the potential as a preclinical candidate was examined. […] The frequency of resistance for both vancomycin and VanQAmC10 against MRSA was <10^−8 indicating the absence of spontaneous mutants. […]
from 10 μg/mL. The bacteria with compounds and untreated control were incubated for 18 h at 37 ̊C under shaking and OD600 was measured.
Microscopy of ΔamiAC MG1655 E. coli
ΔamiAC MG1655 was cultured overnight in LB media at 37 ̊C. Cells were then inoculated in LB media at 1:100 dilution ratio and made to grow till O.D600 0.1. The cells were then treated with 4 μg/mL concentration of vancomycin and VanQAmC10 or left untreated for 2 h. […]
MRSA ATCC 33591 was grown to mid-log phase at 37 °C. […] The viable bacteria were then counted after 48 h incubation at 37 °C. […]
Antagonization of antibacterial activity of AAV-qC10 was determined by addition of 500 μM N,N՛-diacetyl–L-Lys–D-Ala–D-Ala or 100 μg/mL of lipoteichoic acid to serial dilutions of the test compound. The MIC was then determined against MRSA by measuring the OD600 18-24 […]
Vancomycin was chosen as control antibiotic for MRSA. The initial MIC values of VanQAmC10, vancomycin were determined against the respective bacteria. […]
The doses for administration, were given modified OECD guidelines. LD50 was determined using Spearman-Karber method. […]

Row | SMILES | fold enhancement in activity as compared to vancomycin against VRE [1] | increase in MIC (resistance development) [2]
1 | CCCCCCCCCCNC(=O)C[N+](C)(C)CCCNC(=O)C1NC(=O)C2NC(=O)C(NC(=O)C3NC(=O)C(CC(N)=O)NC(=O)C(NC(=O)C(CC(C)C)NC)C(O)c4ccc(c(Cl)c4)Oc4cc3cc(c4OC3OC(CO)C(O)C(O)C3OC3CC(C)(N)C(O)C(C)O3)Oc3ccc(cc3Cl)C2O)c2ccc(O)c(c2)-c2c(O)cc(O)cc21 (stereo not shown) [VanQAmC10 (8)] | ~160 fold | lack of resistance development
2 | CN[C@H](CC(C)C)C(=O)N[C@H]1C(=O)N[C@@H](CC(N)=O)C(=O)N[C@H]2C(=O)N[C@H]3C(=O)N[C@H](C(=O)N[C@H](C(=O)O)c4cc(O)cc(O)c4-c4cc3ccc4O)[C@H](O)c3ccc(c(Cl)c3)Oc3cc2cc(c3O[C@@H]2O[C@H](CO)[C@@H](O)[C@H](O)[C@H]2O[C@H]2C[C@](C)(N)[C@H](O)[C@H](C)O2)Oc2ccc(cc2Cl)[C@H]1O [Vancomycin, reference compound] | – | 2 fold
3 | CNC(CC(C)C)C(=O)NC1C(=O)NC(CC(N)=O)C(=O)NC2C(=O)NC3C(=O)NC(C(=O)NC(C(=O)NCCC[N+](C)(C)Cc4ccc(-c5ccccc5)cc4)c4cc(O)cc(O)c4-c4cc3ccc4O)C(O)c3ccc(c(Cl)c3)Oc3cc2cc(c3OC2OC(CO)C(O)C(O)C2OC2CC(C)(N)C(O)C(C)O2)Oc2ccc(cc2Cl)C1O (stereo not shown) [VanQbiph (4)] | 40- to 60 fold | –
